Patent US10160762B2, “6-alkyl dihydropyrazolopyrimidinone compounds as PDE2 inhibitors” (Merck Sharp & Dohme Corp., priority 2015, dated 2018)
Where two headings read alike, the source gives them in different places.

Biological target: T1, Rhesus PDE2A3 (Macaca mulatta, UniProt B3VTJ2)
T1 construct: made in house; host or cells: AD293 cells, transient transfection; supernatant of sonicated lysate
T1 sequence (B3VTJ2 1-941): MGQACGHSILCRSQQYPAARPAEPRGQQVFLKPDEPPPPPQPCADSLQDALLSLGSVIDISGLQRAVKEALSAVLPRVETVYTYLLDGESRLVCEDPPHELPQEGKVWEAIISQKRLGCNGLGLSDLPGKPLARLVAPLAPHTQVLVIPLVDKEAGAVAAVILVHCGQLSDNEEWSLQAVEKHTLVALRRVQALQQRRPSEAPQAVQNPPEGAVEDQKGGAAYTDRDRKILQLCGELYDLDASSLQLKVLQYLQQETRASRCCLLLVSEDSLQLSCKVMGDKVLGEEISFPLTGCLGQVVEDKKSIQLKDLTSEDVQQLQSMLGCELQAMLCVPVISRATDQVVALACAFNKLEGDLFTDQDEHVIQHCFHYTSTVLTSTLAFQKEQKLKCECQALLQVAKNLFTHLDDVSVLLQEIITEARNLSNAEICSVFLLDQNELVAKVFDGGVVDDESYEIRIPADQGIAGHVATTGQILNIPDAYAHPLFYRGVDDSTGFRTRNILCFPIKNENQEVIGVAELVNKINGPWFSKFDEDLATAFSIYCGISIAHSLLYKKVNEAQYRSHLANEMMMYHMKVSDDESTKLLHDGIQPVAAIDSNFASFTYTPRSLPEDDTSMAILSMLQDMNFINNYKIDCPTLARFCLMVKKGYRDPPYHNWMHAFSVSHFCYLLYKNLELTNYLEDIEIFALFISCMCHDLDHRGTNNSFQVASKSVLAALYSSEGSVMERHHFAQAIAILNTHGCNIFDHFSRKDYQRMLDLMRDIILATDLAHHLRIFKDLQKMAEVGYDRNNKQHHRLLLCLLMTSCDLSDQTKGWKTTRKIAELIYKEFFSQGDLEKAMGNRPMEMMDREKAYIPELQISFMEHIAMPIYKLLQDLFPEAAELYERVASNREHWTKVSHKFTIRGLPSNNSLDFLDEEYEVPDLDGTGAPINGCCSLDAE
Experiment: PDE2 fluorescence polarization (IMAP FP) inhibition assay, rhesus PDE2A3
Format: biochemical, rhesus macaque
How it was run: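 Enzyme source was the lysate supernatant of AD293 cells transiently expressing rhesus PDE2A3, diluted to give 20% conversion of 50 nM FAM-cAMP, with 1 µM cGMP as activator. Buffer was 10 mM Tris pH 7.2, 10 mM MgCl2, 1 mM DTT.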

[1] = Lab A, read-out: Rhesus PDE2 Ki (nM) Lab A
[2] = Lab B, read-out: Rhesus PDE2 Ki (nM) Lab B

SMILES | Ki [1] [nM] | Ki [2] [nM]
Cc1nc2c(c(CF)nn2C(C)c2ccc(OC(F)(F)F)c(F)c2)c(=O)[nH]1 (single isomer, unassigned) [Example 216, (R)- or (S)-1-(1-(3-Fluoro-4-(trifluoromethoxy)phenyl)ethyl)-3-(fluoromethyl)-6-methyl-1H-pyrazolo[3,4-d]pyrimidin-4(5H)-one] | 19 | 41
Cc1nc2c(c(CF)nn2C(C)c2ccc(OC(F)(F)F)c(F)c2)c(=O)[nH]1 (single isomer, unassigned) [Example 217, (S)- or (R)-1-(1-(3-Fluoro-4-(trifluoromethoxy)phenyl)ethyl)-3-(fluoromethyl)-6-methyl-1H-pyrazolo[3,4-d]pyrimidin-4(5H)-one] | 0.39 | 0.53
COc1ccc(Cc2nc3c(c(CF)nn3C(C)c3ccc(C(F)(F)F)cc3)c(=O)[nH]2)cc1OC (single isomer, unassigned) [Example 222, (R)- or (S)-6-(3,4-Dimethoxybenzyl)-3-(fluoromethyl)-1-(1-(4-(trifluoromethyl)phenyl)ethyl)-1,5-dihydro-4H-pyrazolo[3,4-d]pyrimidin-4-one] | 0.17 | ~0.28
COc1ccc(Cc2nc3c(c(CF)nn3C(C)c3ccc(C(F)(F)F)cc3)c(=O)[nH]2)cc1OC (single isomer, unassigned) [Example 223, (S)- or (R)-6-(3,4-Dimethoxybenzyl)-3-(fluoromethyl)-1-(1-(4-(trifluoromethyl)phenyl)ethyl)-1,5-dihydro-4H-pyrazolo[3,4-d]pyrimidin-4-one] | 26 | 
Cc1nc2c(c(CO)nn2C(C)c2ccc(C(F)(F)F)c(F)c2)c(=O)[nH]1 (stereo not shown) [Example 1, 1-(1-(3-Fluoro-4-(trifluoromethyl)phenyl)ethyl)-3-(hydroxymethyl)-6-methyl-1H-pyrazolo[3,4-d]pyrimidin-4(5H)-one] | 4.1 | 7.2
Cc1ccc(C(C)n2nc(CO)c3c(=O)[nH]c(C)nc32)cc1 (stereo not shown) [Example 2, 3-(Hydroxymethyl)-6-methyl-1-(1-p-tolylethyl)-1H-pyrazolo[3,4-d]pyrimidin-4(5H)-one] | 26 | 30
Cc1nc2c(c(CO)nn2C(C)c2ccc(C3CC3)cc2)c(=O)[nH]1 (stereo not shown) [Example 3, 1-(1-(4-Cyclopropylphenl)ethyl)-3-(hydroxymethyl)-6-methyl-1H-pyrazolo[3,4-d]pyrimidin-4(5H)-one] | 1.8 | 5.6
Cc1nc2c(c(CO)nn2C(C)c2ccc(OC(F)(F)F)cc2)c(=O)[nH]1 (stereo not shown) [Example 4] | 3.8 | 7.1
Cc1nc2c(c(CO)nn2C(c2ccc(C(F)(F)F)cc2)C(C)C)c(=O)[nH]1 (stereo not shown) [Example 5, 3-(Hydroxymethyl)-6-methyl-1-(2-methyl-1-(4-(trifluoromethyl)phenyl)propyl)-1H-pyrazolo[3,4-d]pyrimidin-4(5H)-one] | 0.62 | 1
Cc1nc2c(c(CO)nn2C(c2ccc(C(F)(F)F)cc2)C(F)(F)F)c(=O)[nH]1 (stereo not shown) [Example 6, 3-(Hydroxymethyl)-6-methyl-1-(2,2,2-trifluoro-1-(4-(trifluoromethyl)phenyl)ethyl)-1H-pyrazolo[3,4-d]pyrimidin-4(5H)-one] | 1.6 | 3.5
Cc1nc2c(c(CO)nn2C(C)c2ccc(C(F)(F)F)cc2)c(=O)[nH]1 (stereo not shown) [Example 7, 3-(Hydroxymethyl)-6-methyl-1-(1-(4-(trifluoromethyl)phenyl)ethyl)-1H-pyrazolo[3,4-d]pyrimidin-4(5H)-one] | 19 | 
Cc1nc2c(c(CO)nn2Cc2ccc(C(F)(F)F)cc2)c(=O)[nH]1 [Example 8, 3-(Hydroxymethyl)-6-methyl-1-[4-(trifluoromethyl)benzyl]-1,5-dihydro-4H-pyrazolo[3,4-d]pyrimidin-4-one] | 192 | 
Cc1nc2c(c(CO)nn2C(C)(C)c2ccc(C(F)(F)F)cc2)c(=O)[nH]1 [Example 9, 3-(Hydroxymethyl)-6-methyl-1-{1-methyl-1-[4-(trifluoromethyl)phenyl]ethyl}-1,5-dihydro-4H-pyrazolo[3,4-d]pyrimidin-4-one] | 54 | 56
Cc1nc2c(c(CO)nn2C(c2ccc(C(F)(F)F)cc2)C2CC2)c(=O)[nH]1 (stereo not shown) [Example 28, 1-(Cyclopropyl(4-(trifluoromethyl)phenyl)methyl)-3-(hydroxymethyl)-6-methyl-1H-pyrazolo[3,4-d]pyrimidin-4(5H)-one] | 0.75 | 2.2
Cc1nn(C(C)c2ccc(C(F)(F)F)cc2)c2nc(Cc3cccc(O)c3)[nH]c(=O)c12 (stereo not shown) [Example 30, 6-(3-Hydroxybenzyl)-3-methyl-1-(1-(4-(trifluoromethyl)phenyl)ethyl)-1H-pyrazolo[3,4-d]pyrimidin-4(5H)-one] | 6.6 | 11
Cc1nn(C(C)c2ccc(C(F)(F)F)cc2)c2nc(Cc3ccccc3O)[nH]c(=O)c12 (stereo not shown) [Example 31, 6-(2-Hydroxybenzyl)-3-methyl-1-(1-(4-(trifluoromethyl)phenyl)ethyl)-1H-pyrazolo[3,4-d]pyrimidin-4(5H)-one] | 65 | 128
CCOCCc1nc2c(c(C)nn2C(C)c2ccc(C(F)(F)F)cc2)c(=O)[nH]1 (stereo not shown) [Example 35, 6-(2-Ethoxyethyl)-3-methyl-1-(1-(4-(trifluoromethyl)phenyl)ethyl)-1H-pyrazolo[3,4-d]pyrimidin-4(5H)-one] | 164 | 
CCc1nc2c(c(C)nn2C(C)c2ccc(C(F)(F)F)cc2)c(=O)[nH]1 (stereo not shown) [Example 38, 6-Ethyl-3-methyl-1-{1-[4-(trifluoromethyl)phenyl]ethyl}-1,5-dihydro-4H-pyrazolo[3,4-d]pyrimidin-4-one] | 58 | 
Cc1nn(C(C)c2ccc(C(F)(F)F)cc2)c2nc(C3CCC3)[nH]c(=O)c12 (stereo not shown) [Example 39, 6-Cyclobutyl-3-methyl-1-{1-[4-(trifluoromethyl)phenyl]ethyl}-1,5-dihydro-4H-pyrazolo[3,4-d]pyrimidin-4-one] | 147 | 
Cc1nn(C(C)c2ccc(C(F)(F)F)cc2)c2nc(C3CCCC3)[nH]c(=O)c12 (stereo not shown) [Example 40, 6-Cyclopentyl-3-methyl-1-{1-[4-(trifluoromethyl)phenyl]ethyl}-1,5-dihydro-4H-pyrazolo[3,4-d]pyrimidin-4-one] | 340 | 
CCCc1nc2c(c(C)nn2C(C)c2ccc(C(F)(F)F)cc2)c(=O)[nH]1 (stereo not shown) [Example 41, 3-Methyl-6-propyl-1-{1-[4-(trifluoromethyl)phenyl]ethyl}-1,5-dihydro-4H-pyrazolo[3,4-d]pyrimidin-4-one] | 64 | 
Cc1nn(C(C)c2ccc(C(F)(F)F)cc2)c2nc(C3CC3)[nH]c(=O)c12 (stereo not shown) [Example 42, 6-Cyclopropyl-3-methyl-1-{1-[4-(trifluoromethyl)phenyl]ethyl}-1,5-dihydro-4H-pyrazolo[3,4-d]pyrimidin-4-one] | 58 | 
Cc1nn(C(C)c2ccc(C(F)(F)F)cc2)c2nc(C(C)C)[nH]c(=O)c12 (stereo not shown) [Example 43, 3-Methyl-6-(1-methylethyl)-1-{1-[4-(trifluoromethyl)phenyl]ethyl}-1,5-dihydro-4H-pyrazolo[3,4-d]pyrimidin-4-one] | 257 | 
COc1ccc(Cc2nc3c(c(C)nn3C(C)c3ccc(C(F)(F)F)cc3)c(=O)[nH]2)cc1OC (stereo not shown) [Example 44, 6-(3,4-Dimethoxybenzyl)-3-methyl-1-{1-[4-(trifluoromethyl)phenyl]ethyl}-1,5-dihydro-4H-pyrazolo[3,4-d]pyrimidin-4-one] | 4.8 | 
